Measured values from US4157396A, “Hydroxamic acid derivatives and medicaments for treatment of urolithiasis and pyelonephrosis comprising such derivatives” (Eisai Co., Ltd., priority 1976, dated 1979).
Where two headings read alike, the source gives them in different places.

Experiments:
[1] = Acute toxicity: observation of the general conditions; format: in vivo; conditions: for Number of death examples, Female / Number of death examples, Male: rat, in vivo
Excerpt: (§1) Eight week-old rats of SD strain (body weight: about 230 g for male and about 160 g for female) were used as the subject animals. The examination compounds were forcedly and orally administered in the following dosages, wherein 14 rats (7 male rats and 7 female rats, respectively) were used.

[2] = Examination of urine (Labstix test paper, amount, pH); format: in vivo, male SD strain rats; set-up: key to Protein in urine, hours 0-6 / Protein in urine, hours 6-24 / Glucose in urine, hours 0-6 / Glucose in urine, hours 6-24 / Ketone substances in urine, hours 0-6 / Ketone substances in urine, hours 6-24 / Occult blood in urine, hours 0-6 / Occult blood in urine, hours 6-24: (-); (±); (+); (++); (+++); conditions: 100 mg/Kg oral, male SD rats; for Ketone substances in urine, hours 0-6 / Occult blood in urine, hours 0-6 / Protein in urine, hours 0-6 / Glucose in urine, hours 6-24 / Ketone substances in urine, hours 6-24 / Occult blood in urine, hours 6-24 / Protein in urine, hours 6-24 / Glucose in urine, hours 0-6: Labstix; for Ketone substances in urine, hours 0-6 / Occult blood in urine, hours 0-6 / Protein in urine, hours 0-6: 0-6 hours; for Glucose in urine, hours 6-24 / Ketone substances in urine, hours 6-24 / Occult blood in urine, hours 6-24 / Protein in urine, hours 6-24: 6-24 hours; for Glucose in urine, hours 0-6: first collection period; for Amount and pH value of the urine: compared with the group given no examination compound
Protocol: To 5 male SD strain rats having the body weight of about 280 g in the respective groups, the examination compounds were forcedly and orally administered in a ratio of 100 mg/Kg in each time.
Natural urinations were respectively recovered 6 hours and 6-24 hours from the administration. As for control group wherein no examination compound is administered, natural urination was similarly recovered. Amount and pH value of the recovered urine were measured. Further, qualitative reaction concerning the respective items of protein, glucose, ketone substances, and occult blood in the urine was carried out by using Labstix text paper (manufactured and sold by Ames Company). Judgement was ranked as five levels, that is, (-), (±), (+), (++) and (+++).

[3] = Acute toxicity (LD50), oral; conditions: rat, in vivo
Excerpt: The examination was achieved by orally administering the examination compounds into male rats of SD strain weighing about 230 g, respectively.

Proteus mirabilis OM-1 [4] = assay: Arrestment action to the calculus formation in the urine; format: cell-based; conditions: OM1, human urine with Proteus mirabilis OM-1, 24 hours, read-out: Arrest ratio to calculus formation (%), 24 hours; for inhibition at 200 µM: 2×10^-4 M; for inhibition at 1000 µM: 10^-3 M
Protocol: (§2) Solutions to be examined were prepared by collecting each 18 ml of fresh urine from a normal human, and adding the respective examination compounds to each of the urine to make their concentration of 10^-3 M in one group, and of 2×10^-4 in the other group. On the other hand, same solutions containing no examination compounds were prepared as blanks.
Proteus mirabilis OM-1, a urease-producing bacterium, was inoculated in said solutions, so that the number of the bacteria may amount to 10^6 cell/ml, and cultured at 37° C. After […] and 24 hours of the culture time, pH values of the solutions and amounts by weight of the formed and deposited calculus were measured. The arrestment ratio of calculus formation was calculated from said values.

Proteus mirabilis OM-1 [5] = assay: as above; format: cell-based; conditions: OM1, human urine with Proteus mirabilis OM-1, 8 hours, read-out: Arrest ratio to calculus formation (%), 8 hours; for inhibition at 200 µM: 2×10^-4 M; for inhibition at 1000 µM: 10^-3 M
[6] = Acute toxicity: remarks on the dissection; format: in vivo, rats of SD strain; conditions: for Remarks on the dissection, death examples: macroscopic observation at the time of death; for Remarks on the dissection, survivor example: rat, in vivo
Protocol: as §1
The dissection was performed, for the death examples, at the time of death and, for the survivor example, after killing by discharging the blood when the observation of the general conditions was finished. The organs in the thoracic cavity and the abdominal cavity were closely observed with a macroscopic manner.

[7] = target: T1, Urease collected and purified from sword beans (Canavalia gladiata) (Canavalia gladiata, UniProt A0AAN9R4W0); assay: Determination of the urease inhibitory action; format: biochemical; conditions: read-out: 50% inhibitory concentration (M) of urease <I50>
T1 construct: single-chain plant urease, homohexamer by analogy with jack bean urease
Protocol: (i) Determination of the urease inhibitory action
Urease was collected and purified from sword beans (Canavalia gladiata) and mol concentrations of the examination compounds for inhibiting 50% of the activity of the urease were measured by the method of Kobashi et al [Refer to Biochim. Biophys. acta 227, 429-441 (1971)].

[8] = Determination of the transfer rate into the urine and calculation of the index; format: in vivo, male rats of SD strain; conditions: rat, male SD rats, 100 mg/Kg oral, measured as urease inhibitory action in excreted urine; for dose excreted at 6 h: 0-6 hours; for dose excreted at 24 h: 6-24 hours
Protocol: (ii) Determination of the transfer rate into the urine
Transfer rates into the urine of the examination compounds were determined according to the method of Kobashi et al [Refer to Biochemistry (Japan) vol. 44, No. 5, pp. 187-204 (1972) and Yakugaku Zasshi vol. 12, pp. 1564-1572 (1973)] by using the male rats of SD strain having the body weight of about 280 g, administering orally each 100 mg/Kg of the compounds, and measuring the urease inhibitory action in the excreted urine within a specified period of time.
(iii) Calculation of the index
The index was calculated from the resulting values of the above examinations (i) and (ii) according to the following equation: [formula] wherein n is chosen appropriately depending on the value of I50.
The value of the index is referred to as a standard of the urease inhibitory power of the administered examination compound in the urine.
It is seen that the larger the value of the index is, the more effectively the examination compounds transfer into the urine with a form having the urease inhibitory action. Results of the determination

Proteus mirabilis OM-1 [9] = assay: Arrestment action to alkalization of the urine; format: cell-based; conditions: normal human urine inoculated with Proteus mirabilis OM-1, 37° C.
Protocol: as §2
Proteus mirabilis OM-1, a urease-producing bacterium, was inoculated in said solutions, so that the number of the bacteria may amount to 10^6 cell/ml, and cultured at 37° C. […] The arrestment ratio of calculus formation was calculated from said values.

[10] = single forced oral dose, SD rats, 7 male and 7 female per dose
[11] = single forced oral dose, SD rats, all administration groups

T1 sequence (A0AAN9R4W0 entry or part of it): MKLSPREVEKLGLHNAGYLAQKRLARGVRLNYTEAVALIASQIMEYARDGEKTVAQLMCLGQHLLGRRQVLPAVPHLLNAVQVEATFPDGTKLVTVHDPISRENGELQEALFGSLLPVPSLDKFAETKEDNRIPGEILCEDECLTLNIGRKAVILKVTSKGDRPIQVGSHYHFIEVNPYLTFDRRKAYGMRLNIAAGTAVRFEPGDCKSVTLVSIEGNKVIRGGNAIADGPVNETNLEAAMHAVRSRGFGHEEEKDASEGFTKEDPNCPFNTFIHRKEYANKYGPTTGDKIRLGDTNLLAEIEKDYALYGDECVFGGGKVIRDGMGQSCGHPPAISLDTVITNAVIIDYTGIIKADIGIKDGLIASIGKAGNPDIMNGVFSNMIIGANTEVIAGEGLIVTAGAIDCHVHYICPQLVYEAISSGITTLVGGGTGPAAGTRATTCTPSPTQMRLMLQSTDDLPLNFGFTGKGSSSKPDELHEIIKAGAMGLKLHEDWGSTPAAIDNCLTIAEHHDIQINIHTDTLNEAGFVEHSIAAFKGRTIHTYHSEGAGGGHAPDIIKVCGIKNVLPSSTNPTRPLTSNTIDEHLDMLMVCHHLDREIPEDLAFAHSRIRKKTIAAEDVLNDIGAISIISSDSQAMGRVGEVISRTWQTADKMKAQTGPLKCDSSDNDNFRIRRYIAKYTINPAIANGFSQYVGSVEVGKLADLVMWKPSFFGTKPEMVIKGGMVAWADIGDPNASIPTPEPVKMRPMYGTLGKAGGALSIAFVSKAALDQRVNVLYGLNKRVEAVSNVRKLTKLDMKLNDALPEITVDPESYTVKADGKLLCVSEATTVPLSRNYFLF

Row | Compound | Number of death examples, Female [1] | Number of death examples, Male [1] | Symptom [1, 10] | Baited amount [1, 11] | Ketone substances in urine, hours 0-6 [2] | Occult blood in urine, hours 0-6 [2] | Protein in urine, hours 0-6 [2] | Glucose in urine, hours 6-24 [2] | inhibition at 200 µM (Proteus mirabilis OM-1 [4]) [%] | inhibition at 1000 µM (Proteus mirabilis OM-1 [4]) [%] | inhibition at 200 µM (Proteus mirabilis OM-1 [5]) [%] | inhibition at 1000 µM (Proteus mirabilis OM-1 [5]) [%] | IC50 [7] [M] | dose excreted at 6 h [8] [%] | dose excreted at 24 h [8] [%] | pH value, time 8 hours (Proteus mirabilis OM-1 [9]; 2×10^-4 M) | pH value, time 24 hours (Proteus mirabilis OM-1 [9]; 2×10^-4 M) | pH value, time 0 hour (Proteus mirabilis OM-1 [9]; 10^-3 M) | pH value, time 8 hours (Proteus mirabilis OM-1 [9]; 10^-3 M) | pH value, time 24 hours (Proteus mirabilis OM-1 [9]; 10^-3 M) | also measured
1 | O=C(CNC(=O)c1ccc(Cl)cc1)NO [Control compound I, 2-(para-chloro-benzamide)-acetohydroxamic acid, reference compound] | 0/7 | 3/7 | arantic change | Decrease | ++ | - | ++ | +++ | 30.6 ± 13.9 | 82.5 ± 8.5 | 77.2 ± 9.1 | 69.7 ± 9 | 1e-06 | 1 | 0.5 | 7.30±0.00 | 8.51±0.01 | 6.75±0.003 | 6.64±0.02 | 7.03±0.01 | Body Weight decrease on average [1, 11]: 10%; Ketone substances in urine, hours 6-24 [2]: +++; Occult blood in urine, hours 6-24 [2]: -; Protein in urine, hours 6-24 [2]: +++; Glucose in urine, hours 0-6 [2]: +++; Amount and pH value of the urine [2]: there was not found the difference; LD50 ([3]; po): > 5000 mg/kg; Remarks on the dissection, death examples [6]: Petechiae and ulcer; Remarks on the dissection, survivor example [6]: Blacking change and hypertrophy of spleen; pH value, time 0 hour (Proteus mirabilis OM-1 [9]; 2×10^-4 M): 6.79±0.01
2 | COc1cccc(C(=O)NCC(=O)NO)c1 [Compound B, 2-(meta-methoxy-benzamide)-acetohydroxamic acid] | 3/7 | 2/7 | Hair raising | No change | - | - | + | - | 26.2 ± 5.7 | 79.1 ± 8.2 | 87.5 ± 1.6 | 82 ± 9.2 | 1.2e-06 | 12.3 | 1.5 | 6.84±0.02 | 8.71±0.01 | 6.47±0.01 | 5.41±0.01 | 6.52±0.003 | Ketone substances in urine, hours 6-24 [2]: -; Occult blood in urine, hours 6-24 [2]: -; Protein in urine, hours 6-24 [2]: ±; Glucose in urine, hours 0-6 [2]: -; Amount and pH value of the urine [2]: there was not found the difference; LD50 ([3]; po): > 5000 mg/kg; Remarks on the dissection, death examples [6]: Erosion was observed; Remarks on the dissection, survivor example [6]: No abnormality; pH value, time 0 hour (Proteus mirabilis OM-1 [9]; 2×10^-4 M): 6.45±0.01
3 | O=C(CNC(=O)c1ccco1)NO [Compound R, 2-(2-furoilamino)-acetohydroxamic acid] |  |  |  |  |  |  |  |  | 28.4 ± 5.1 | 72.3 ± 8.3 | 85.6 ± 4.7 | 84.1 ± 5.5 | 1.3e-06 | 15.5 | 0.68 | 6.65±0.02 | 8.52±0.01 | 6.46±0.00 | 5.42±0.01 | 6.98±0.02 | LD50 ([3]; oral, male SD rats about 230 g): > 5000 mg/kg; pH value, time 0 hour (Proteus mirabilis OM-1 [9]; 2×10^-4 M): 6.44±0.01
4 | COc1ccc(C(=O)NCC(=O)NO)cc1 [Compound A, 2-(para-methoxy-benzamide)-acetohydroxamic acid] | 0/7 | 1/7 | No change | No change | - | - | + | - | 32 ± 3.4 | 76.6 ± 6 | 99 ± 1 | 96.2 ± 0.4 | 1.7e-06 | 12 | 0.83 | 6.56±0.02 | 8.38±0.02 | 6.40±0.00 | 5.40±0.003 | 5.58±0.05 | Behaviour [1, 10]: No change; Ketone substances in urine, hours 6-24 [2]: -; Occult blood in urine, hours 6-24 [2]: -; Protein in urine, hours 6-24 [2]: ±; Glucose in urine, hours 0-6 [2]: -; Amount and pH value of the urine [2]: there was not found the difference; LD50 ([3]; po): > 5000 mg/kg; Remarks on the dissection, death examples [6]: Erosion was observed; Remarks on the dissection, survivor example [6]: No abnormality
5 | CC(=O)Nc1cccc(C(=O)NCC(=O)NO)c1 [Compound M, 2-(meta-acetylaminobenzamide)-acetohydroxamic acid] |  |  |  |  |  |  |  |  | 38.8 ± 8 | 81.4 ± 5.6 | 80.1 ± 6.7 | 91.5 ± 5.1 | 2e-06 | 15 | 0.6 | 7.96±0.02 | 8.70±0.00 | 6.78±0.02 | 6.79±0.01 | 7.08±0.03 | LD50 ([3]; oral, male SD rats about 230 g): > 5000 mg/kg
